# Data as given in patent US20080182267A1, “METHOD FOR PREDICTING A DRUG TRANSPORT CAPABILITY BY ABCG2 POLYMORPHISMS” (BANYU PHARMACEUTICAL CO., Ltd., priority 2002, published 2008).
# pIC50: −log10 of the molar value.
# Columns and labels:
# [1] = tested on: LLC-PK1 cell line (C4) transfected with vector alone; experiment: Cytotoxicity by sulforhodamine B dye-staining, clone C4 (vector alone); format: cell-based, porcine; settings: Sus scrofa, no ABCG2, 72 hours, 37° C., read-out: IC50 for cell viability
# Procedure: (§1) Among the polymorphic mutations identified in Example 1, two mutations—G34A and C421A—having a high possibility to affect the function of the ABCG2 polypeptide were prepared and introduced into animal cells as an endeavor to analyze their functions. Preparation of the mutated ABCG2 genes was conducted by PCR and a point mutation was introduced. […] As a control, a plasmid expressing the wild type (WT) ABCG2 and the vector plasmid pcDNA3.1(+) alone without the ABCG2 gene were used and those four kinds of expression plasmids were introduced to an animal cell (porcine kidney cell line) LLC-PK1 by lipofection method (Lipofectamine; Gibco BRL). Stable transfectants were selected with 1,500 μg/ml of Geneticin (Gibco BRL) for two weeks and cell lines were established. To determine the expressed level of ABCG2 in each cell line, total RNA was extracted from each transfectant cells and HeLa cells with Trizol (Gibco BRL). Seven microgram of the total RNA extracted from each clone of cell and full length ABCG2 cDNA (2.2 kb) probe labeled with ^32P were used for Northern hybridization. […]
# (§2) All of the incubations were carried out at 37° C. under the humidified atmosphere containing 5% of carbon dioxide. The cytotoxicity of anticancer drugs was determined by sulforhodamine B dye-staining method and compared with each other. […]
# [2] = tested on: ABCG2 (wild type); experiment: Cytotoxicity by sulforhodamine B dye-staining, clone 1-58 (wild type ABCG2); settings: pig
# Procedure: as §1, §2
# [3] = tested on: LLC-PK1 cell line (1-58) expressing the wild type ABCG2; experiment: as above; settings: among the four transfectant clones C4, 1-58, 2-51, 3-28
# Procedure: as §1, §2
# [4] = tested on: ABCG2 (Val12Met mutant); experiment: Cytotoxicity by sulforhodamine B dye-staining, clone 2-51 (ABCG2 Val12Met); settings: pig
# Procedure: as §1, §2
# [5] = tested on: ABCG2 (Gln141Lys mutant); experiment: Cytotoxicity by sulforhodamine B dye-staining, clone 3-28 (ABCG2 Gln141Lys); settings: pig
# Procedure: as §1, §2
smiles,measurement,setting,value
"CC[C@@]1(O)C(=O)OCc2c1cc1n(c2=O)Cc2cc3ccccc3nc2-1 [Camptothecin, camptothecin]",pIC50,[1],8.06
same,IC50 at 72 h,[2],21.3 nM
same,difference in terms of the resistance among the cells,[3],no significant difference
same,IC50 at 72 h,[4],12.2 nM
same,IC50 at 72 h,[5],26.8 nM
